{
  "source": "ChEMBL document CHEMBL1201862",
  "about": "“PubChem BioAssay data set” (2004)",
  "key": {"cells": {"experiment": "cells", "format": "functional, cell-based"}, "[1]": {"molecular_target": "Nuclear receptor subfamily 0 group B member 1 (Homo sapiens, UniProt P51843)", "sequence (P51843 whole entry)": "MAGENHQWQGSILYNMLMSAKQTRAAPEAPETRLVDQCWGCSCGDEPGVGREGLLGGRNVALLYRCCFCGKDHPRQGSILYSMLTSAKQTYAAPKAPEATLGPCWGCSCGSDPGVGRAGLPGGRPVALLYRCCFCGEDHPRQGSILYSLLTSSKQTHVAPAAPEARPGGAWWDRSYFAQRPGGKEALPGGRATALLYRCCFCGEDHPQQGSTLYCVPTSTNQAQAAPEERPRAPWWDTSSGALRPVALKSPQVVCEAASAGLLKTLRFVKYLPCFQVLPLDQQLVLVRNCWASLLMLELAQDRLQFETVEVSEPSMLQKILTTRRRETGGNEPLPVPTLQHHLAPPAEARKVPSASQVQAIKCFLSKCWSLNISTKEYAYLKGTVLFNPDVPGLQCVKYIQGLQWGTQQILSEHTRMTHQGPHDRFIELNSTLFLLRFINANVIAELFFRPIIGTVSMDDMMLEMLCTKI", "format": "functional, cell-based"}, "[2]": {"molecular_target": "Fructose-bisphosphate aldolase (Mycobacterium tuberculosis, UniProt P9WQA3)", "sequence (P9WQA3 whole entry)": "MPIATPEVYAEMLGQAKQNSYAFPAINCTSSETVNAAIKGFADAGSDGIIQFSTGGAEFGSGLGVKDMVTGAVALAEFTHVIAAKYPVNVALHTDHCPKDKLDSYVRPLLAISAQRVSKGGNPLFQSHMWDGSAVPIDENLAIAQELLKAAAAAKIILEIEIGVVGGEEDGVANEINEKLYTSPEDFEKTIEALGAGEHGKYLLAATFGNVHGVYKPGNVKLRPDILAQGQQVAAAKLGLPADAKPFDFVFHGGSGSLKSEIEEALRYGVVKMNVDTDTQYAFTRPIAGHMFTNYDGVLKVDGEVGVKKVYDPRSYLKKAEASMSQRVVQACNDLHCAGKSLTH", "experiment": "Fluorescence-based biochemical high throughput dose response assay for inhibitors of the fructose-bisphosphate aldolase (FBA) of M. tuberculosis.", "format": "functional"}, "Beta-lactamase [3]": {"molecular_target": "Beta-lactamase (Pseudomonas aeruginosa, UniProt Q79MP6)", "sequence (Q79MP6 whole entry)": "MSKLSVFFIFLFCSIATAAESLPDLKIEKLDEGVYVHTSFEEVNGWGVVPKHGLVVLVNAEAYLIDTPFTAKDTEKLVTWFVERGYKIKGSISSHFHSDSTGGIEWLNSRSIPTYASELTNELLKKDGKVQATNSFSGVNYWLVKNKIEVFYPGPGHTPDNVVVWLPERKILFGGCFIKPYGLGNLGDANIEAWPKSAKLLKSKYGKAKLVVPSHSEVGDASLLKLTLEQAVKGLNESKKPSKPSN"}, "Beta-lactamase [4]": {"molecular_target": "Beta-lactamase (Salmonella choleraesuis (strain SC-B67), UniProt Q5J463)", "sequence (Q5J463 whole entry)": "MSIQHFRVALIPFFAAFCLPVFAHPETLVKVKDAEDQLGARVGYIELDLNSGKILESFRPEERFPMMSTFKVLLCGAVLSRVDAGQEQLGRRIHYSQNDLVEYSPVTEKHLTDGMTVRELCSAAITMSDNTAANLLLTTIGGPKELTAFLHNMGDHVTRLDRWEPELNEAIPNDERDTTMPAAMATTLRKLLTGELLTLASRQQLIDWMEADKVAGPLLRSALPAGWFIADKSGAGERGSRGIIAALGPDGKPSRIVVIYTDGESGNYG"}, "[5]": {"molecular_target": "T1, Endoribonuclease toxin MazF (Escherichia coli K-12, UniProt P0AE70)", "T1 sequence (P0AE70 whole entry)": "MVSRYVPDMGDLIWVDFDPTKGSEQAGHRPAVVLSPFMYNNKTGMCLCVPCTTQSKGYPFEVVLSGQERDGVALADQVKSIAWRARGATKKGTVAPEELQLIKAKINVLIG", "experiment": "MazF toxin RNase activators, dose response, biochemical, fluorescence, single-stranded RNA substrate, uHTS hits (AID 588481)", "format": "functional"}, "Beta Lactamase": {"molecular_target": "Beta Lactamase (Pseudomonas aeruginosa, UniProt Q932Y6)", "sequence (Q932Y6 whole entry)": "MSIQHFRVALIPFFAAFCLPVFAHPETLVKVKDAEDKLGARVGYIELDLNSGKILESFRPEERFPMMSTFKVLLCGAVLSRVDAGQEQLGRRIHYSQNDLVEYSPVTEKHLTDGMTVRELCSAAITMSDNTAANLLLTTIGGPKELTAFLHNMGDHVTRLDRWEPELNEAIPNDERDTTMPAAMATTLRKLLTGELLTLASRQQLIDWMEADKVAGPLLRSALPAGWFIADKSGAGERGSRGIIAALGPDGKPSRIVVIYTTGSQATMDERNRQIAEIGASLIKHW"}, "[6]": {"molecular_target": "T1, Endoribonuclease toxin MazF", "experiment": "fluorescent RNA oligo signal without MazF, dose response, counter-screen for MazEF activator project, biochemical, fluorescence, single-stranded RNase substrate (AID 588502)", "format": "functional"}, "[7]": {"molecular_target": "T2, Botulinum neurotoxin type A (Clostridium botulinum (strain Hall / ATCC 3502 / NCTC 13319 / Type A), UniProt P0DPI1)", "T2 sequence (P0DPI1 2-448 limits assumed)": "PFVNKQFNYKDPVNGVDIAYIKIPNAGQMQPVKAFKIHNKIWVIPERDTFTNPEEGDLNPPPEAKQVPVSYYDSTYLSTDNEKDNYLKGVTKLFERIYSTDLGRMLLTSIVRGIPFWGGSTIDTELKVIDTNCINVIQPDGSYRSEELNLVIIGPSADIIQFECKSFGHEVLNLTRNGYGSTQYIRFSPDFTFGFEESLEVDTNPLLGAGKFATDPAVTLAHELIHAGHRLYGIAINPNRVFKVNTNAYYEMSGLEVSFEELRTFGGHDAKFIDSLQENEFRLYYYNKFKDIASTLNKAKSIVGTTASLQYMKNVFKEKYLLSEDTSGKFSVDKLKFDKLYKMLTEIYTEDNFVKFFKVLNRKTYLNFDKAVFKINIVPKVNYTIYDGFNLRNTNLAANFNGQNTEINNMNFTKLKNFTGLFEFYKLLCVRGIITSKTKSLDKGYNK", "experiment": "High-throughput multiplex microsphere dose response for inhibitors of toxin protease, specifically Botulinum neurotoxin light chain A protease, compounds from Powder Set 01.", "format": "functional, Clostridium botulinum A str. ATCC 3502", "details": "read-out: EC50_MICROM"}, "[8]": {"molecular_target": "T2, Botulinum neurotoxin type A", "experiment": "High-throughput multiplex microsphere dose response for inhibitors of toxin protease, specifically Botulinum neurotoxin light chain A protease, compounds from Cherry Pick 01.", "format": "functional", "details": "read-out: EC50_MICROM"}, "Lethal factor": {"molecular_target": "Lethal factor (Bacillus anthracis, UniProt P15917)", "sequence (P15917 whole entry)": "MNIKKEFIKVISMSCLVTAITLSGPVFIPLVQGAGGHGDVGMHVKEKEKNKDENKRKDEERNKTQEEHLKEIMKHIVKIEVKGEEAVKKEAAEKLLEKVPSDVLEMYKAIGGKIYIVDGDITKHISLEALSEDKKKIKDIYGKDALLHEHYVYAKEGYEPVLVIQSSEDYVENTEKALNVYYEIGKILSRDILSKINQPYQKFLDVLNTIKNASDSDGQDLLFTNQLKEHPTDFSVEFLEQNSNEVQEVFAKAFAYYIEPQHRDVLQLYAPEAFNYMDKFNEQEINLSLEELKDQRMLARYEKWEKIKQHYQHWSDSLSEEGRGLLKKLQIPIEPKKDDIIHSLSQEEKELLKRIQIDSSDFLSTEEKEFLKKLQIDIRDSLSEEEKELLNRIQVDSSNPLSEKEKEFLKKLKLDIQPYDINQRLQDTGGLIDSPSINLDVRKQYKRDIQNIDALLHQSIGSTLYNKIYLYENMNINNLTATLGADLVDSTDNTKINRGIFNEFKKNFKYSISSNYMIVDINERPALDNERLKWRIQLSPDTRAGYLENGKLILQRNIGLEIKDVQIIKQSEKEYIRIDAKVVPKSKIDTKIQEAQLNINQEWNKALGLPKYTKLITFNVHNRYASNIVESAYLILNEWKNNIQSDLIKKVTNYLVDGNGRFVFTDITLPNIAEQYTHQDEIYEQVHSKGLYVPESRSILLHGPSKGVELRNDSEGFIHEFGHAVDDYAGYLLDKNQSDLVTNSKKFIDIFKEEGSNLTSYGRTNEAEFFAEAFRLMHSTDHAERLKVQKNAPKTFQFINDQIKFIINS", "experiment": "High-throughput multiplex microsphere dose response for inhibitors of toxin protease, specifically Lethal Factor protease, compounds from Powder Set 01.", "format": "functional, Bacillus anthracis str. A2012", "details": "read-out: EC50_MICROM"}, "[9]": {"molecular_target": "T2, Botulinum neurotoxin type A", "experiment": "Confirmatory FRET assay using full length substrates for Botulinum neurotoxin light chain A protease, with Powder Set01.", "format": "functional"}, "[10]": {"molecular_target": "Botulinum neurotoxin type F (Clostridium botulinum, UniProt P30996)", "sequence (P30996 1-436 limits assumed)": "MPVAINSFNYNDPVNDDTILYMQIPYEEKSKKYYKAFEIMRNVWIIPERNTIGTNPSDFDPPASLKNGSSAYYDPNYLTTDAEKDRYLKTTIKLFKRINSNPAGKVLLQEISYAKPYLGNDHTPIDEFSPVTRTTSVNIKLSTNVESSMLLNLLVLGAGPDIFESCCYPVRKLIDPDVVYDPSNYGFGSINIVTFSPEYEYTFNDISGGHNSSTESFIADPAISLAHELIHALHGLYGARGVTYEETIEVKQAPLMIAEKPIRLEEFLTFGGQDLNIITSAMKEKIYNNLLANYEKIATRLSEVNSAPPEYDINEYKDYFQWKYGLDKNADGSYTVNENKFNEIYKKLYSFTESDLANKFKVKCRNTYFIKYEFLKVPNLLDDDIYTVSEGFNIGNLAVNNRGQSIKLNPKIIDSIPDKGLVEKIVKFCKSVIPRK", "experiment": "High-throughput multiplex microsphere dose response for inhibitors of toxin protease, specifically Botulinum neurotoxin light chain F protease, compounds from Powder Set 01.", "format": "functional, Clostridium botulinum Bf", "details": "read-out: EC50_MICROM"}, "[11]": {"experiment": "nonselective inhibitors of cellular cAMP signaling, dose response, counter-screen for MC4R biased antagonist project, cell-based, TR-FRET cAMP detection (AID 602305);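 also: U2OS cells stimulated with forskolin near its EC80 as the cAMP inducer; potency is for inhibition of forskolin-stimulated cAMP signaling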", "format": "functional"}, "[12]": {"experiment": "Shn3 3'UTR reporter inhibitors, dose response, cell-based, Clone20 osteoblasts, firefly luciferase, cherry-picked (AID 624132);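 also: firefly luciferase luminescence from reporter carrying the Shn3 3'UTR in osteoblasts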", "format": "functional"}, "[13]": {"experiment": "HepG2 cell cytotoxicity, dose response, cytotoxicity control for Shn3 inhibitor project, CellTiter-Glo, cherry-picked (AID 624134)", "format": "functional, cell-based"}, "Melanocortin receptor 4": {"molecular_target": "Melanocortin receptor 4 (Homo sapiens, UniProt P32245)", "sequence (P32245 whole entry)": "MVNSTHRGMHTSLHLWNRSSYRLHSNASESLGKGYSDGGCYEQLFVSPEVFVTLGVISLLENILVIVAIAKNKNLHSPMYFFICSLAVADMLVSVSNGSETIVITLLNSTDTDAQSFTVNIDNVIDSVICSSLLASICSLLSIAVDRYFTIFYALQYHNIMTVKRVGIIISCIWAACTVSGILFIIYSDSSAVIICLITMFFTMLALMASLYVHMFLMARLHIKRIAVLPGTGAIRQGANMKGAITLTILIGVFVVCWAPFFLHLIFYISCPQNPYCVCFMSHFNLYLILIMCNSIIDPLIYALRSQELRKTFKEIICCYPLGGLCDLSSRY", "experiment": "MC4R antagonist potency on cAMP, dose response, cell-based, TR-FRET, biased antagonists (AID 602298);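 also: antagonist potency against agonist-stimulated cAMP production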", "format": "functional"}, "[14]": {"experiment": "control 3'UTR Renilla luciferase suppression, dose response, counter-screen for Shn3 inhibitor project, cell-based, Clone20-Shn3RL, cherry-picked (AID 624133)", "format": "functional"}, "Beta-galactosidase": {"molecular_target": "Beta-galactosidase (Escherichia coli, UniProt Q8VNN2)", "sequence (Q8VNN2 whole entry)": "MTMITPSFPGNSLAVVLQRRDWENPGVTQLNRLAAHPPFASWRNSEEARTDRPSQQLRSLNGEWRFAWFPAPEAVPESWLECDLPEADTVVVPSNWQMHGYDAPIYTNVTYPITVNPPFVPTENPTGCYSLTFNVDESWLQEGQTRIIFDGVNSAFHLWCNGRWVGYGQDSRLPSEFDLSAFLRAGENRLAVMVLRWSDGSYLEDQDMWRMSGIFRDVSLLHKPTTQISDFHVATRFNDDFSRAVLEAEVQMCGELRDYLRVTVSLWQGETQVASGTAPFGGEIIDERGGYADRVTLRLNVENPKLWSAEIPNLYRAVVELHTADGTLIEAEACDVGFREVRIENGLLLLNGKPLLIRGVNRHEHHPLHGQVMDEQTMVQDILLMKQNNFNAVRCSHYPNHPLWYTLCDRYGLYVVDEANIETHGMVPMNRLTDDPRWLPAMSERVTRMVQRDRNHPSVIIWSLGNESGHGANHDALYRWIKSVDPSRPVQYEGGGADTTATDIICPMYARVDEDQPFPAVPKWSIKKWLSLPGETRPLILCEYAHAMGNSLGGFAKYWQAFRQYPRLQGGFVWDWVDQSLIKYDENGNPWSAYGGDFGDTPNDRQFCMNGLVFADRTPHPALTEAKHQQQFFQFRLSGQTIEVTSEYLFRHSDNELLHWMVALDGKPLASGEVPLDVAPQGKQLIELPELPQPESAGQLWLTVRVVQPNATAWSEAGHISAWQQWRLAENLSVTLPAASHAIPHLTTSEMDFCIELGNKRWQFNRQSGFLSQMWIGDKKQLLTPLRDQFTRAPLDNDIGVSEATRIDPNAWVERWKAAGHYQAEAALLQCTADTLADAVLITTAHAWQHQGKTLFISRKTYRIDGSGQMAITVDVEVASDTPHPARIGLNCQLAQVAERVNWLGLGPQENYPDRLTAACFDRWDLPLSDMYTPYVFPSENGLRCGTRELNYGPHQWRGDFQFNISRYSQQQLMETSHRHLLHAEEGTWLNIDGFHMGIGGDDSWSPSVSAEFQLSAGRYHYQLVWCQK", "experiment": "Dose response counterscreen for EBI2 assay utilizing the enzyme, b-galactosidase.", "format": "functional"}},
  "note": "Active and inactive are the calls of the source. Unless noted, the rule behind the calls is not given here.",
  "data": [
    {"smiles": "CC1CCc2sc(C(=O)NC(C)C3CCCO3)cc2C1", "note": "(centres undefined)", "values": [
      {"measurement": "IC50", "setting": "cells", "value": "> 67.5 µM (inactive)"},
      {"measurement": "IC50", "setting": "[1]", "value": "> 67.5 µM (inactive)"}
    ]},
    {"smiles": "COc1ccc2oc(=O)c(C(=O)NCc3ccccn3)cc2c1", "values": [
      {"measurement": "IC50", "setting": "[2]", "value": "1.53 µM (active)"}
    ]},
    {"smiles": "Oc1ccc2ccccc2c1-c1sc(Nc2ccccc2)n[n+]1-c1ccc(F)cc1", "values": [
      {"measurement": "IC50", "setting": "Beta-lactamase [3]", "value": "46.8 µM (inactive)"},
      {"measurement": "IC50", "setting": "Beta-lactamase [4]", "value": "23.7 µM (inactive)"},
      {"measurement": "EC50", "setting": "[5]", "value": "> 99 µM (inactive)"},
      {"measurement": "IC50", "setting": "Beta Lactamase", "value": "32 µM (inactive)"},
      {"measurement": "EC50", "setting": "[6]", "value": "> 99 µM (inactive)"}
    ]},
    {"smiles": "O=C(Nc1ccc2nc(-c3cccs3)c(-c3cccs3)nc2c1)N1CCOCC1", "values": [
      {"measurement": "EC50", "setting": "[7]", "value": "5.8 µM (active)"},
      {"measurement": "EC50", "setting": "[8]", "value": "15.5 µM (active)"},
      {"measurement": "EC50", "setting": "Lethal factor", "value": "7.6 µM (active)"},
      {"measurement": "EC50", "setting": "[9]", "value": "0.4 µM (active)"},
      {"measurement": "EC50", "setting": "[10]", "value": "9.6 µM (active)"}
    ]},
    {"smiles": "O=C(CSc1c2c(nc3ccc(Cl)cc13)CCCC2)N1CCN(C(=O)c2ccco2)CC1", "values": [
      {"measurement": "IC50", "setting": "[11]", "value": "> 64.6 µM (inactive)"},
      {"measurement": "AC50", "setting": "[12]", "value": "3.75 µM (active)"},
      {"measurement": "AC50", "setting": "[13]", "value": "65.3 µM (active)"},
      {"measurement": "IC50", "setting": "Melanocortin receptor 4", "value": "> 64.6 µM (inactive)"},
      {"measurement": "AC50", "setting": "[14]", "value": "11.8 µM (active)"}
    ]},
    {"smiles": "CN(Cc1ccccc1)C(=O)COc1ccc2ccccc2c1", "values": [
      {"measurement": "IC50", "setting": "Beta-galactosidase", "value": "> 80 µM (inactive)"}
    ]}
  ]
}
